Data: PMC5802807, “Heme interaction of the intrinsically disordered N-terminal peptide segment of human cystathionine-β-synthase” (Scientific Reports, 2018)

Biological target: T1, GB1CBS(1–40) (Homo sapiens, UniProt P35520)
T1 construct: gene CBS; His6 tag cut with thrombin; E. coli BL21(DE3); full-length CBS 551 residues
T1 sequence (P35520 1-40): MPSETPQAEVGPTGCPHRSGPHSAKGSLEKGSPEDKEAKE
Assay: UV/Vis titration, Soret band at […] nm
Type: binding

SMILES: C=CC1=C(C)C2=Cc3c(C=C)c(C)c4[n]3[Fe]([Cl])[n]3c(c(C)c(CCC(=O)O)c3=CC3=NC(=C4)C(C)=C3CCC(=O)O)=CC1=N2 [hemin]
- Kd: 2180 ± 640 nM
